Test results taken from article PMC10349829, “Functional characterization of the transient receptor potential melastatin 2 (TRPM2) cation channel from Nematostella vectensis reconstituted into lipid bilayer” (Scientific Reports, 2023).
pEC50: −log10 of the molar value. Where two headings read alike, the source gives them in different places.

Biological target: T1, nvTRPM2 (transient receptor potential melastatin 2) (Nematostella vectensis, UniProt A7T1N0)
T1 construct: gene TRPM2; purified and reconstituted into planar lipid bilayers
Assay: single-channel recording of purified channel in planar lipid bilayers (activation)
Format: biochemical

T1 sequence (A7T1N0 whole entry): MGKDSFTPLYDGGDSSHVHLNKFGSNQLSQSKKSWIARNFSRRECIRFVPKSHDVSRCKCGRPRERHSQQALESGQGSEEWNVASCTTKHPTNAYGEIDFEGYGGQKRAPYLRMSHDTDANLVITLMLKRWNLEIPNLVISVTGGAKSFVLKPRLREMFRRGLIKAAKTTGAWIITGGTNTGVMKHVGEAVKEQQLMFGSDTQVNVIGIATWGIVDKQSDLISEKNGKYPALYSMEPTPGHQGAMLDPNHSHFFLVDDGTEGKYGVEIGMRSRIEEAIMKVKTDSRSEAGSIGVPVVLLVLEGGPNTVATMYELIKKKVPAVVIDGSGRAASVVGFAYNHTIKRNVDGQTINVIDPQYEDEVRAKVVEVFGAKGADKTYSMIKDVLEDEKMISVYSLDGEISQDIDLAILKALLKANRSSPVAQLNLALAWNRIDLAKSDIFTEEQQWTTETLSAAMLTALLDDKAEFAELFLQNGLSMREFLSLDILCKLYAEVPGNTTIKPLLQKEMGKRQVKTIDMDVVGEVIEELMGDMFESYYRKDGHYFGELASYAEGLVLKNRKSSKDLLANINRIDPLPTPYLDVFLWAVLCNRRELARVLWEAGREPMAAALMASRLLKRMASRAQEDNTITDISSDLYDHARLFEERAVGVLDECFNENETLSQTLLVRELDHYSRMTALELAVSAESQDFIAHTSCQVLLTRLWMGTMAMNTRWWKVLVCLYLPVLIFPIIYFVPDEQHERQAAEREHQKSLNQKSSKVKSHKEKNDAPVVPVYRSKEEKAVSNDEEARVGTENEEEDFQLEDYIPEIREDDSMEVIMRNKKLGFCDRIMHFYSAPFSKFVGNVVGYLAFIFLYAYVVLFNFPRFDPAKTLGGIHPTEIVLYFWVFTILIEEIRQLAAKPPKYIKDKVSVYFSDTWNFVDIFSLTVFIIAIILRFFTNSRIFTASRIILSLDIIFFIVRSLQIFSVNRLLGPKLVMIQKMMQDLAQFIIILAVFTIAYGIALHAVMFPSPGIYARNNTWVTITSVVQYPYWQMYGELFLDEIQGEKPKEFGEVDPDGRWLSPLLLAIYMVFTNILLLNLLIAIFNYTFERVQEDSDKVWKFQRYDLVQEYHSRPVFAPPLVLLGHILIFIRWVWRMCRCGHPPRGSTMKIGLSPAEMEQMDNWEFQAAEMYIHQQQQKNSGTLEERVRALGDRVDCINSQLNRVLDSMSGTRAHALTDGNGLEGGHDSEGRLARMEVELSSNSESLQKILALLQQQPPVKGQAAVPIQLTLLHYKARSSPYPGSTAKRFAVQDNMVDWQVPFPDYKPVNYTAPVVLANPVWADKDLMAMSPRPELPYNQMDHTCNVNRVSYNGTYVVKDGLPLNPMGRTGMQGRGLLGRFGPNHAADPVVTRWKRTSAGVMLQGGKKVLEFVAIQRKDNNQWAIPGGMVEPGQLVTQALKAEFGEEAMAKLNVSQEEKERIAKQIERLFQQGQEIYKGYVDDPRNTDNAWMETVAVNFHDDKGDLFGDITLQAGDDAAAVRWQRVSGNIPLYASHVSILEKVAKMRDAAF

Nc1ncnc2c1ncn2[C@@H]1O[C@H](COP(=O)(O)OP(=O)(O)OC[C@H]2OC(O)[C@H](O)[C@@H]2O)[C@@H](O)[C@H]1OP(=O)(O)O (some centres unmarked) [ADPRP]
pEC50: ~6.70

Nc1ncnc2c1ncn2[C@@H]1O[C@H](COP(=O)(O)OP(=O)(O)OC[C@H]2OC(O)[C@H](O)[C@@H]2O)[C@@H](O)[C@H]1O (some centres unmarked) [ADPR]
pEC50 (read-out: EC50): ~6.00
